The IC50 is the concentration that inhibits the measured activity by half.

The structures appear in SMILES notation. Counter-ions that a name gives are not always drawn.

The target in this experiment is T1, purified STEP46 enzyme (Homo sapiens, UniProt P54829).
T1 sequence (P54829 197-565 limits assumed): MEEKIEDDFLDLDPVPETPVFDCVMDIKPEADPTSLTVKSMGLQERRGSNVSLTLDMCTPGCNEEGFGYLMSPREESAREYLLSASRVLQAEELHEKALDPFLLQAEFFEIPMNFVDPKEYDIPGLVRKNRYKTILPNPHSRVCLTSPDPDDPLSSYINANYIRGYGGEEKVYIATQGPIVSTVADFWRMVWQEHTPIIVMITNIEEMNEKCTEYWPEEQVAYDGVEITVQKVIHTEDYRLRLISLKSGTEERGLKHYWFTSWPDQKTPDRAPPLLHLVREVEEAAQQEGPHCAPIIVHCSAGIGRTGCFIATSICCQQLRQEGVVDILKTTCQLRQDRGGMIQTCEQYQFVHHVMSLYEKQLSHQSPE
Kind of experiment: STEP46 biochemical assay (DiFMUP fluorescence phosphatase assay). To be noted: DiFMUP 10 μM, read-out: STEP IC50. How it is done: Serial dilutions of compounds were performed in 100% DMSO and 1 uL of compounds were dispensed into 384-well black polystyrene plates (Corning, N.Y.). Compounds were incubated with 24 uL of buffer containing 50 mM Hepes, 1 mM DTT, 0.02% Brij35, 1 ng/well purified STEP46 enzyme for […] at room temperature. The reaction was initiated by addition of 25 uL of DiFMUP (6,8-difluoro-4-methylumbelliferyl phosphate) (InVitrogen, CA) with a final concentration of 10 μM and incubated at 27° C. for 90 mM Final DMSO concentration is 2%. Plates were read with florescence intensity at excitation/emission of 360/460 nm using a PheraStar plate reader (BMG Labtech, NC).
Data were expressed as percentage (%) inhibition of enzyme activity. 0% inhibition is defined as the RFUs (relative fluorescence units) in the absence of compounds and 100% inhibition is defined as RFUs in the absence of STEP46 enzyme. IC50 values of compounds with inhibitory activity against STEP46 were determined by GraphPad Prism (version 4.03) using four parameter logistic equation. Some compounds act as activators. For compounds showing STEP46 enzymatic activation, data are represented as percentage of inhibition but with negative values at three representative concentrations (25, 50 and 100 uM).

As for `CCOc1cccc(-c2ccc3nc(-c4cccnc4)nc(NC)c3c2)c1F` [Compound 242], the IC50 is above 10 µM.

Consider `Fc1ccc(-c2ccc3nc(-c4cccnc4)nc(NCc4ccccn4)c3c2)cc1` [Compound 374], for which the IC50 was 1 to 10 µM.

`CNc1nc(-c2cccnc2)nc2ccc(-c3c(F)cccc3F)cc12` [Compound 458]: the 50% inhibitory concentration (IC50) is 1 to 10 µM.

With `c1ccc(CNc2nc(-c3cccnc3)nc3ccc(-c4ccco4)cc23)nc1` [Compound 348], the concentration for half-maximal inhibition (IC50) is 1 to 10 µM.

With `CNc1nc(-c2cccnc2)nc2cc(-c3ccc(F)cc3C)ccc12` [Compound 321], the IC50 is 1 to 10 µM.

Consider `Cc1noc(C)c1-c1nc(-c2cccnc2)nc2ccc(-c3ccc(F)cc3F)cc12` [Compound 422], for which the IC50 was in the range of 1 to 10 µM.

As for `CNc1nc(-c2cccnc2)nc2cc(F)c(-c3ccc(F)cc3)cc12` [Compound 587], the IC50 lay within 1 to 10 µM.

For `COc1ccc2c(Nc3ccc(C)cn3)nc(-c3cccnc3)nc2c1` [Compound 55], the half-maximal inhibitory concentration (IC50) is 1 to 10 µM.

In the case of `CNc1nc(-c2cccnc2)nc2c(F)c(-c3ccc4c(cnn4C)c3)ccc12` [Compound 532], the IC50 is below 1 µM.

As for `CNc1nc(-c2cccnc2)nc2c(F)c(-c3cccc(F)c3F)ccc12` [Compound 515], the IC50 was 1 to 10 µM.

Take `CNc1nc(-c2cccnc2)nc2ccc(-c3ccc4c(c3)oc(=O)n4C)cc12` [Compound 470]: the half-maximal inhibitory concentration (IC50) was below 1 µM.

On to `CNc1nc(-c2cncc(F)c2)nc2cc(-c3cc(F)ccc3F)ccc12` [Compound 157], for which the IC50 was in the range of 1 to 10 µM.

As for `Fc1cccc(-c2ccc3c(N4CCc5cc(Cl)ccc54)nc(-c4cccnc4)nc3c2)c1` [Compound 96], the concentration for half-maximal inhibition (IC50) lay within 1 to 10 µM.

With `CNc1nc(-c2cccnc2)nc2cc(-c3cccc(F)c3F)c(F)cc12` [Compound 557], the IC50 was 1 to 10 µM.

With `Cn1ccc2c(-c3ccc4nc(-c5cccnc5)nc(NCc5ccccn5)c4c3)cccc21` [Compound 341], the IC50 is above 10 µM.

As to `CNc1nc(-c2cccnc2)nc2cc(-c3cccc(OCC(=O)N(C)C)c3)ccc12` [Compound 138], the IC50 was in the range of 1 to 10 µM.

Take `CNc1nc(-c2cccnc2)nc2ccc(-c3ccc(F)c(C(N)=O)c3)cc12` [Compound 183]: the IC50 lay in the range of 1 to 10 µM.

Consider `Cc1ccc2c(c1)CCN2c1nc(-c2cccnc2)nc2cc(-c3cc(F)ccc3F)ccc12` [Compound 98], for which the half-maximal inhibitory concentration (IC50) was in the range of 1 to 10 µM.

As to `CNc1nc(-c2cccnc2)nc2cc(F)c(-c3cccc(F)c3)cc12` [Compound 584], the IC50 lay in the range of 1 to 10 µM.

On to `CNc1nc(-c2cccnc2)nc2ccc(OCCCN3CCN(C)CC3)cc12` [Compound 136, N-methyl-6-(3-(4-methylpiperazin-1-yl)propoxy)-2-(pyridin-3-yl)quinazolin-4-amine tetrahydrochloride], for which the concentration for half-maximal inhibition (IC50) was 1 to 10 µM.

As for `CNc1nc(-c2cccnc2)nc2c(OC)cc(-c3ccc(F)cc3)cc12` [Compound 259], the IC50 was above 10 µM.

Turning to `CNc1nc(-c2cccnc2)nc2cc(-c3c(F)ccc(F)c3F)ccc12` [Compound 453], the half-maximal inhibitory concentration (IC50) lay within 1 to 10 µM.

With `CNc1nc(-c2cccnc2)nc2c(-c3ccc(F)c(F)c3)ccc(OC)c12` [Compound 496], the IC50 lay in the range of 1 to 10 µM.

Turning to `CNc1nc(-c2cccnc2)nc2ccc(-c3ccc4c(c3)N(C)C(=O)CO4)cc12` [Compound 467], the half-inhibitory concentration (IC50) was in the range of 1 to 10 µM.

With `O=[N+]([O-])c1ccc2c(c1)CCN2c1nc(-c2cccnc2)nc2cc(-c3cccnc3)ccc12` [Compound 106], the IC50 was below 1 µM.

As to `CNc1nc(-c2cccnc2)nc2ccc(-c3ccc(S(=O)(=O)C(C)C)cc3)cc12` [Compound 256], the IC50 is above 10 µM.

As to `NC(=O)C1CN(c2nc(-c3cccnc3)nc3ccc(-c4ccc(F)cc4F)cc23)C1` [Compound 419], the IC50 lay in the range of 1 to 10 µM.

As to `Fc1ccccc1-c1ccc2c(N3CCc4cc(Cl)ccc43)nc(-c3cccnc3)nc2c1` [Compound 95], the 50% inhibitory concentration (IC50) lay within 1 to 10 µM.

Turning to `Fc1ccc(-c2ccc3nc(-c4cccnc4)nc(Nc4cccc(F)n4)c3c2)cc1` [Compound 439], the IC50 was 1 to 10 µM.

Take `CNc1nc(-c2cccnc2)nc2c(-c3cccc(C#N)c3)cccc12` [Compound 272]: the IC50 was below 1 µM.

As for `CNc1nc(-c2cccnc2)nc2ccc(-c3cc(F)nc(F)c3)cc12` [Compound 283], the 50% inhibitory concentration (IC50) lay within 1 to 10 µM.

For the molecule `CNc1nc(-c2cnccn2)nc2ccc(-c3cc(F)cc(F)c3)c(F)c12` [Compound 980], the 50% inhibitory concentration (IC50) lay in the range of 1 to 10 µM.

Take `CNc1nc(-c2cccnc2)nc2c(C)c(-c3cc(F)c(F)c(F)c3)ccc12` [Compound 289]: the concentration for half-maximal inhibition (IC50) was below 1 µM.

With `CNc1nc(-c2cccnc2)nc2c(F)c(-c3ccsc3)ccc12` [Compound 527], the concentration for half-maximal inhibition (IC50) lay within 1 to 10 µM.

With `CNc1nc(-c2cccnc2)nc2cc(-c3ccoc3)ccc12` [Compound 318], the IC50 is above 10 µM.

As for `CNc1nc(-c2cnccn2)nc2c(F)c(-c3ccc(F)cc3F)ccc12` [Compound 995], the IC50 lay in the range of 1 to 10 µM.

`CNc1nc(-c2ccc(F)nc2)nc2cc(-c3cc(F)ccc3F)ccc12` [Compound 156]: the IC50 was 1 to 10 µM.

For the molecule `Fc1cccc(-c2ccc3nc(-c4ccnnc4)nc(NCc4ccccn4)c3c2)c1F` [Compound 333], the IC50 was above 10 µM.

`c1ccc(CNc2nc(-c3cccnc3)nc3ccc(-c4ccoc4)cc23)nc1` [Compound 602]: the concentration for half-maximal inhibition (IC50) lay in the range of 1 to 10 µM.

For `CNc1nc(-c2cccnc2)nc2c(F)c(-c3ccc4sccc4c3)ccc12` [Compound 529], the IC50 is 1 to 10 µM.

For the molecule `Brc1ccc2nc(-c3cccnc3)nc(N3CCc4ccccc43)c2c1` [Compound 19], the half-maximal inhibitory concentration (IC50) lay within 1 to 10 µM.

`CNc1nc(-c2cccnc2)nc2ccc(-c3c(F)ccc(F)c3F)cc12` [Compound 456]: the half-inhibitory concentration (IC50) fell in the range of 1 to 10 µM.

Consider `CNc1nc(-c2cccnc2)nc2ccc(-c3cccc(-c4ncco4)c3)cc12` [Compound 250], for which the half-maximal inhibitory concentration (IC50) was below 1 µM.

With `CNc1nc(-c2cccnc2)nc2ccc(-c3ccc(C(F)(F)F)cc3C(F)(F)F)cc12` [Compound 202], the concentration for half-maximal inhibition (IC50) was above 10 µM.

As for `COc1ccc2nc(-c3cccnc3)nc(-n3ccc4cccnc43)c2c1` [Compound 41], the concentration for half-maximal inhibition (IC50) is 1 to 10 µM.

Take `CNc1nc(-c2cccnc2)nc2cc(-c3ccoc3C)ccc12` [Compound 275]: the IC50 was above 10 µM.

For `CNc1nc(-c2cccnc2)nc2cc(F)c(-c3cc(F)cc(F)c3)cc12` [Compound 588], the IC50 fell in the range of 1 to 10 µM.

As for `CNc1nc(-c2cncc(OC)c2)nc2cc(-c3cc(F)ccc3F)ccc12` [Compound 162], the IC50 lay within 1 to 10 µM.

With `Cc1c(-c2cc(F)c(F)c(F)c2)ccc2c(N(C)C)nc(-c3cccnc3)nc12` [Compound 292], the concentration for half-maximal inhibition (IC50) fell in the range of 1 to 10 µM.

`CC(Nc1nc(-c2cccnc2)nc2ccc(-c3ccc(F)cc3)cc12)c1ccccc1` (centres unmarked) [Compound 605]: the concentration for half-maximal inhibition (IC50) lay within 1 to 10 µM.

For the molecule `CNc1nc(-c2cccnc2)nc2c(Cl)cc(-c3cccc(F)c3F)cc12` [Compound 243], the IC50 fell in the range of 1 to 10 µM.

As to `Fc1ccc2c(c1)N(c1nc(-c3cccnc3)nc3ccc(Br)cc13)CC2` [Compound 22], the half-inhibitory concentration (IC50) fell in the range of 1 to 10 µM.

Consider `Clc1ccc2c(c1)N(c1nc(-c3cccnc3)nc3ccc(Br)cc13)CC2` [Compound 23], for which the IC50 is 1 to 10 µM.

In the case of `Fc1ccc(-c2ccc3nc(-c4cccnc4)nc(NCCc4ccccn4)c3c2)cc1` [Compound 337], the concentration for half-maximal inhibition (IC50) is above 10 µM.

With `Nc1nc(-c2cncnc2)nc2ccc(-c3cccc(F)c3)cc12` [Compound 213], the IC50 was above 10 µM.

Consider `COc1ccc2nc(-c3cccnc3)nc(Nc3ccc(F)cn3)c2c1` [Compound 24], for which the 50% inhibitory concentration (IC50) was 1 to 10 µM.

`CNc1nc(-c2cccnc2)nc2c(OC)cc(-c3ccccc3Cl)cc12` [Compound 306]: the IC50 was 1 to 10 µM.

For the molecule `Cc1c(-c2cccnc2)ccc2c(N3CCc4cc(Cl)ccc43)nc(-c3cccnc3)nc12` [Compound 114], the IC50 was below 1 µM.

Take `CNc1nc(-c2cccnc2)nc2ccc(-c3ccc4oc(=O)[nH]c4c3)cc12` [Compound 462]: the IC50 is below 1 µM.

Regarding `CNc1nc(-c2cccnc2)nc2cc(-c3c(F)cccc3F)ccc12` [Compound 455], the IC50 fell in the range of 1 to 10 µM.

Take `CNc1nc(-c2cccnc2)nc2c(F)cc(-c3cccc(OC)c3)cc12` [Compound 574]: the IC50 fell in the range of 1 to 10 µM.

As to `COc1cc(F)ccc1-c1ccc2c(N3CCc4cc(Cl)ccc43)nc(-c3cccnc3)nc2c1` [Compound 110], the IC50 was below 1 µM.

For `CNc1nc(-c2cccnc2)nc2c(F)cc(-c3c(F)cccc3F)cc12` [Compound 575], the IC50 is 1 to 10 µM.

As for `CC(Nc1nc(-c2cccnc2)nc2ccc(-c3cccc(F)c3)cc12)c1ccccc1` (centres unmarked) [Compound 604], the IC50 lay within 1 to 10 µM.

Regarding `Fc1ccc(Nc2nc(-c3cccnc3)nc3cc(Cl)ccc23)nc1` [Compound 52], the IC50 was in the range of 1 to 10 µM.
